What was measured:
Zika virus [1] = assay: Zika virus plaque assay on Vero cells; assay type: cell-based; conditions: Vero cells infected with Zika virus
Zika virus [2] = assay: Percent infectivity of Zika-infected VERO cells (FIG. 5); assay type: cell-based; conditions: FIGS. 4 and 5; 5 μM and 1 μM

Substance: dextran 3-[(2-aminoethyl)thio]propyl 17-carboxy-10,13,16-tris(carboxymethyl)-8-oxo-4-thia-7,10,13,16-tetraazaheptadec-1-yl 3-[[2-[[1-imino-2-(D-mannopyranosylthio)ethyl]amino]ethyl]thio]propyl ether complexes [Tilmanocept]
- Reduction of Zika virus in infected Vero cells (Zika virus [1]): 99.9%
- Effect on Zika infection of VERO cells (Zika virus [2]): no effect
